System: 282377-053-R-J1-PDC tumor spheroids, viability
Assay: Anticancer human tumor 282377-053-R-J1-PDC patient-derived colon adenocarcinoma cell line growth inhibition [TAK]
Details: spheroids with HUVEC and MSC; for IC50: curve of first compound; for viability, T/C: stronger effect = lower value
Excerpt: Combinatorial screen of targeted agents with TAK-243 and ipatasertib in multi-cell type tumor spheroids
A high-throughput screen of multi-cell type tumor spheroids was designed to identify active combinations of targeted small molecules and TAK-243 or ipatasertib. Complex spheroids include a stromal component modeled by human endothelial cells (HUVEC) and fibroblasts modeled by human mesenchymal stem cells (MSCs). The concentration ranges selected for each drug and investigational agent were based upon clinically achievable concentrations if the clinical Cmax of the agent was known.
Compounds. The drugs and investigational agents: TAK-243 (785004), ipatasertib (767898), everolimus (733504), selumetinib (741078), bortezomib (756655), trametinib (758246), ixazomib (758254), vemurafenib (761431), dabrafenib (764134), sapanisertib (764658), alpelisib (765974), and copanlisib (816437), were obtained from the National Cancer Institute (NCI) Developmental Therapeutics Program Chemical Repository. The FDA-approved anticancer drug set is available from the NCI Developmental Therapeutics Program. […] The stock solutions were prepared in dimethyl sulfoxide (DMSO, Sigma-Aldrich, St. Louis, MO, cat. D2650) at 800-fold the tested concentration and stored at -70 degrees C prior to their use. All drugs and investigational agents were tested over a range starting from a high concentration at or near the clinical Cmax and decreasing in half-log increments. If the clinical Cmax for an agent had not been determined, the highest concentration tested was 10 microM.
NCI60 Cell Culture. NCI60 cell lines were obtained from the NCI Developmental Therapeutics Program Tumor Repository. For each lot of cells, the Repository performed Applied Biosystems AmpFLSTR Identifiler testing with PCR amplification to confirm consistency with the published Identifier STR profile for each cell line. Cells were kept in continuous culture for no more than 20 passages. The optimal seeding densities for each of the cell lines at each time point assessed were determined prior to performing the concentration response studies. Briefly, the NCI60 human tumor lines were grown as monolayers in RPMI 1640 medium supplemented with 10% FBS and 2 mmol/L L-glutamine.
An additional 2 lines were from the NCI60 cell line panel including melanomas, MALME-3M and SK-MEL-2. Pooled donor human umbilical vein endothelial cells (HUVEC, Lonza, cat. CC-2519) and human mesenchymal stem cells (hMSC, Lonza, cat. PT-2501) were purchased from Lonza (Walkersville, MD).
PDMR cell lines were grown in complete medium (DC medium): Dulbecco's modified Eagle's medium (DMEM)/F12 supplemented with 5% fetal bovine serum (FBS), 2 mM L-glutamine, 100 U/mL penicillin and 100 µg/ml streptomycin, 0.4 µg/ml hydrocortisone, 10 ng/ml epidermal growth factor (EGF) recombinant human protein, 24 µg/mL adenine, and 0.1 mg/mL primocin. During culture from frozen stock vials, PDMR cells were cultured in the same medium containing 10 µM Y-27632 (see Table 3). The PDCs were cultured in complete DMEM/F12 media without 10 microM Y-27632 dihydrochloride for at least two passages prior to the screen. The pooled donor HUVEC and hMSC were cultured in endothelial cell growth medium 2 (PromoCell, Heidelberg, Germany, cat. C-22011) and mesenchymal stem cell growth medium 2 (PromoCell, cat. C-28009), respectively. For all experiments, HUVEC and hMSC were used at passages </=5.
For the pre-screen, cell seeding densities were determined from a titration spanning the range from 5,000 to 313 cells per well. The mct-spheroids including 60% malignant cells, 25% HUVEC and 15% MSC dispensed as a mixture into U-bottom Ultra-Low Attachment 384-well plates (Corning, NY)
High-throughput Drug Combination Screening.
Prior to their inoculation into 384-well plates, malignant cells, HUVEC, and hMSC were removed from T flasks using TrypLE express (Thermo Fisher Scientific, cat. 12605036) and harvested by centrifugation for 5 min at 233 x g. […]
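Note: spheroids exposed to drugs for seven days before readout.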

CC(C)CC(NC(=O)C(Cc1ccccc1)NC(=O)c1cnccn1)B(O)O (stereo not given) + CC(C)NCC(C(=O)N1CCN(c2ncnc3c2C(C)CC3O)CC1)c1ccc(Cl)cc1
IC50 (second compound 0.3 µM): > 10 nM | IC50 (second compound 0.949 µM): > 10 nM | IC50 (second compound 3 µM): > 10 nM | IC50 (second compound 9.49 µM): 7.5 nM | IC50 (second compound 30 µM): 7.96 nM | viability, T/C (second compound 0.3 µM, first compound 31.6 pM): 105% | viability, T/C (second compound 0.3 µM, first compound 0.0001 µM): 96% | viability, T/C (second compound 0.3 µM, first compound 0.000316 µM): 97.5% | viability, T/C (second compound 0.3 µM, first compound 0.001 µM): 98.3% | viability, T/C (second compound 0.3 µM, first compound 0.00316 µM): 98.5% | viability, T/C (second compound 0.3 µM, first compound 0.01 µM): 80.8% | viability, T/C (second compound 0.949 µM, first compound 31.6 pM): 93% | viability, T/C (second compound 0.949 µM, first compound 0.0001 µM): 90.7% | viability, T/C (second compound 0.949 µM, first compound 0.000316 µM): 92.5% | viability, T/C (second compound 0.949 µM, first compound 0.001 µM): 101% | viability, T/C (second compound 0.949 µM, first compound 0.00316 µM): 93.1% | viability, T/C (second compound 0.949 µM, first compound 0.01 µM): 56.5% | viability, T/C (second compound 3 µM, first compound 31.6 pM): 90.2% | viability, T/C (second compound 3 µM, first compound 0.0001 µM): 84.2% | viability, T/C (second compound 3 µM, first compound 0.000316 µM): 87.7% | viability, T/C (second compound 3 µM, first compound 0.001 µM): 86.6% | viability, T/C (second compound 3 µM, first compound 0.00316 µM): 78.8% | viability, T/C (second compound 3 µM, first compound 0.01 µM): 51.1% | viability, T/C (second compound 9.49 µM, first compound 31.6 pM): 83.2% | viability, T/C (second compound 9.49 µM, first compound 0.0001 µM): 83.7% | viability, T/C (second compound 9.49 µM, first compound 0.000316 µM): 83.8% | viability, T/C (second compound 9.49 µM, first compound 0.001 µM): 79.9% | viability, T/C (second compound 9.49 µM, first compound 0.00316 µM): 78.6% | viability, T/C (second compound 9.49 µM, first compound 0.01 µM): 40.6% | viability, T/C (second compound 30 µM, first compound 31.6 pM): 69.2% | viability, T/C (second compound 30 µM, first compound 0.0001 µM): 71.3% | viability, T/C (second compound 30 µM, first compound 0.000316 µM): 72.7% | viability, T/C (second compound 30 µM, first compound 0.001 µM): 68.5% | viability, T/C (second compound 30 µM, first compound 0.00316 µM): 65.3% | viability, T/C (second compound 30 µM, first compound 0.01 µM): 46.2%

Cn1cnc2c(F)c(Nc3ccc(Br)cc3Cl)c(C(=O)NOCCO)cc21 + CC(C)NCC(C(=O)N1CCN(c2ncnc3c2C(C)CC3O)CC1)c1ccc(Cl)cc1
IC50 (second compound 0.3 µM): 396 nM | IC50 (second compound 0.949 µM): 190 nM | IC50 (second compound 3 µM): 161 nM | IC50 (second compound 9.49 µM): 191 nM | IC50 (second compound 30 µM): 66 nM | viability, T/C (second compound 0.3 µM, first compound 0.00949 µM): 81.5% | viability, T/C (second compound 0.3 µM, first compound 0.03 µM): 74.4% | viability, T/C (second compound 0.3 µM, first compound 0.0949 µM): 63.6% | viability, T/C (second compound 0.3 µM, first compound 0.3 µM): 55.6% | viability, T/C (second compound 0.3 µM, first compound 0.949 µM): 38.4% | viability, T/C (second compound 0.3 µM, first compound 3 µM): 17.4% | viability, T/C (second compound 0.949 µM, first compound 0.00949 µM): 82% | viability, T/C (second compound 0.949 µM, first compound 0.03 µM): 70.9% | viability, T/C (second compound 0.949 µM, first compound 0.0949 µM): 56.9% | viability, T/C (second compound 0.949 µM, first compound 0.3 µM): 45.6% | viability, T/C (second compound 0.949 µM, first compound 0.949 µM): 31.8% | viability, T/C (second compound 0.949 µM, first compound 3 µM): 18.9% | viability, T/C (second compound 3 µM, first compound 0.00949 µM): 77.1% | viability, T/C (second compound 3 µM, first compound 0.03 µM): 70.5% | viability, T/C (second compound 3 µM, first compound 0.0949 µM): 54.8% | viability, T/C (second compound 3 µM, first compound 0.3 µM): 42.1% | viability, T/C (second compound 3 µM, first compound 0.949 µM): 31% | viability, T/C (second compound 3 µM, first compound 3 µM): 18.4% | viability, T/C (second compound 9.49 µM, first compound 0.00949 µM): 73.4% | viability, T/C (second compound 9.49 µM, first compound 0.03 µM): 72.2% | viability, T/C (second compound 9.49 µM, first compound 0.0949 µM): 57% | viability, T/C (second compound 9.49 µM, first compound 0.3 µM): 44.3% | viability, T/C (second compound 9.49 µM, first compound 0.949 µM): 30.1% | viability, T/C (second compound 9.49 µM, first compound 3 µM): 18.8% | viability, T/C (second compound 30 µM, first compound 0.00949 µM): 61.5% | viability, T/C (second compound 30 µM, first compound 0.03 µM): 59.8% | viability, T/C (second compound 30 µM, first compound 0.0949 µM): 45.2% | viability, T/C (second compound 30 µM, first compound 0.3 µM): 34.2% | viability, T/C (second compound 30 µM, first compound 0.949 µM): 26.4% | viability, T/C (second compound 30 µM, first compound 3 µM): 13.2%

— PubChem BioAssay AID2060360 (Molecular Pharmacology Branch, DTP, NCI, 2025)
